Results reported in patent publication US9770026B2, “Substituted pyrimidine compound and uses thereof” (Shenyang Sinochem Agrochemicals R&D Co., Ltd., priority 2012, dated 2017).

Experiments:
Diamond back moth = assay: insecticidal activity against diamond back moth, airbrush spray; type: in vivo; conditions: for Insecticidal activity against diamond back moth (%) / pest or weed control at 600 µg/mL: 600 mg/L
In short: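 Airbrush leaf-disc spray test: both faces of 2 cm cabbage discs received 0.5 ml of test solution at 0.7 kg/cm^2. Solutions were made in acetone:methanol (1:1) and brought to concentration with 0.1% Tween 80 in water. Ten second-instar larvae per disc, triplicates, were held at 25° C and 60˜70% R.H., with mortality recorded at 72 hrs.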

armyworm = assay: bioactivity test against armyworm, airbrush spray; type: in vivo; conditions: 600 mg/L; for pest or weed control at 600 µg/mL: 72 h, read-out: Insecticidal activity against armyworm (%)
[1] = system: Green peach aphids (Myzus Persicae Sulzer); assay: bioactivity test against green peach aphid, airbrush foliar spray; type: in vivo; conditions: 600 mg/L, contrastive test; for pest or weed control at 600 µg/mL: Myzus persicae, foliar, 48 h, read-out: Insecticidal activity against peach aphid (%)
In short: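 Death rate was scored at 48 hrs, held at 25±1 C and 60±5% RH, following airbrush foliar spray (0.5 mL, 10 psi) onto cabbage leaf discs bearing about 15-30 aphids. Test solutions: compound dissolved in 1:1 acetone:methanol, brought to concentration with 0.1% tween 80 water.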

carmine spider mite = assay: bioactivity test against carmine spider mite, airbrush spray; type: in vivo; conditions: contrastive test; for Insecticidal activity against carmine spider mite (% ) / pest or weed control at 600 µg/mL: 600 mg/L
In short: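 Broadbean seedlings infested with adult mites were sprayed with compound (acetone/methanol stock diluted in 0.1% Tween 80 water) by airbrush at 0.7 kg/cm^2, 0.5 ml. Three replicates were run. Mortality was scored after 72 hrs.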

corn rust = assay: protectant activity in vivo against corn rust; conditions: protectant activity; for control effect against corn rust (%): 400 mg/L; for pest or weed control at 6.25 µg/mL / pest or weed control at 25 µg/mL / pest or weed control at 100 µg/mL / pest or weed control at 400 µg/mL: Zea mays, 168 h; for pest or weed control at 6.25 µg/mL: read-out: control effect against corn rust (%), 6.25 mg/L; for pest or weed control at 25 µg/mL: read-out: control effect against corn rust (%), 25 mg/L; for pest or weed control at 100 µg/mL: read-out: control effect against corn rust (%), 100 mg/L; for pest or weed control at 400 µg/mL: read-out: control effect against corn rust (%), 400 mg/L
wheat powdery mildew = assay: protectant activity in vivo against wheat powdery mildew; conditions: protectant activity; for control effect against wheat powdery mildew (%): 400 mg/L; for pest or weed control at 400 µg/mL: read-out: control effect against wheat powdery mildew (%), 400 mg/L
cucumber downy mildew = assay: protectant activity in vivo against cucumber downy mildew; conditions: protectant activity; for pest or weed control at 25 µg/mL / pest or weed control at 50 µg/mL / pest or weed control at 100 µg/mL / pest or weed control at 400 µg/mL: Cucumis sativus, 168 h; for pest or weed control at 25 µg/mL: read-out: control effect against cucumber downy mildew (%), 25 mg/L; for pest or weed control at 50 µg/mL: read-out: control effect against cucumber downy mildew (%), 50 mg/L; for pest or weed control at 100 µg/mL: read-out: control effect against cucumber downy mildew (%), 100 mg/L; for pest or weed control at 400 µg/mL: read-out: control effect against cucumber downy mildew (%), 400 mg/L
[2] = Tetranychus cinnabarinus, 72 h, read-out: Insecticidal activity against carmine spider mite (% )

| SMILES | Insecticidal activity against diamond back moth (%) (Diamond back moth) | Insecticidal activity against armyworm (%) (armyworm) | Insecticidal activity against peach aphid (%) [1] [%] | Insecticidal activity against carmine spider mite (% ) (carmine spider mite) [%] | control effect against corn rust (%) (corn rust) | control effect against wheat powdery mildew (%) (wheat powdery mildew) | control effect against cucumber downy mildew (%) (cucumber downy mildew; 400 mg/L) | pest or weed control at 600 µg/mL (Diamond back moth; 72 h) [%] | pest or weed control at 600 µg/mL (armyworm) [%] | pest or weed control at 600 µg/mL [1] [%] | pest or weed control at 6.25 µg/mL (corn rust) [%] | pest or weed control at 25 µg/mL (corn rust) [%] | pest or weed control at 100 µg/mL (corn rust) [%] | pest or weed control at 400 µg/mL (corn rust) [%] | pest or weed control at 25 µg/mL (cucumber downy mildew) [%] | pest or weed control at 50 µg/mL (cucumber downy mildew) [%] | pest or weed control at 100 µg/mL (cucumber downy mildew) [%] | pest or weed control at 600 µg/mL (carmine spider mite; [2]) [%] | pest or weed control at 400 µg/mL (wheat powdery mildew; Triticum aestivum, 168 h) [%] | pest or weed control at 400 µg/mL (cucumber downy mildew) [%] | also measured |
| --- | --- | --- | --- | --- | --- | --- | --- | --- | --- | --- | --- | --- | --- | --- | --- | --- | --- | --- | --- | --- | --- |
| CCc1ncnc(NC(C)c2ccc(Oc3ccccc3)nc2)c1Cl (stereo not drawn) [CK8, reference compound] | 33 | 17 | 0 | 54 | 50 | 0 | 98 |  |  |  |  |  |  |  |  |  |  |  |  |  | control effect against cucumber downy mildew (%) (cucumber downy mildew; 25 mg/L): 75%; control effect against cucumber downy mildew (%) (cucumber downy mildew; 50 mg/L): 80%; control effect against cucumber downy mildew (%) (cucumber downy mildew; 100 mg/L): 95% |
| CCc1ncnc(NC(=O)Cc2ccc(Oc3ncc(C(F)(F)F)cc3Cl)cc2)c1Cl [CK16, reference compound] | 0 | 0 | 64 | 0 | 0 | 70 | 85 |  |  |  |  |  |  |  |  |  |  |  |  |  |  |
| Cc1ncnc(NCc2ccc(Oc3ncc(C(F)(F)F)cc3Cl)cc2)c1Cl [CK23, reference compound] |  |  |  | 64 |  | 100 | 100 | 0 | 0 | 0 | 0 | 0 | 0 | 100 | 0 | 0 | 0 |  |  |  | pest or weed control at 6.25 µg/mL (wheat powdery mildew; Triticum aestivum, 168 h, read-out: control effect against wheat powdery mildew (%), 6.25 mg/L): 0%; pest or weed control at 25 µg/mL (wheat powdery mildew; Triticum aestivum, 168 h, read-out: control effect against wheat powdery mildew (%), 25 mg/L): 0%; pest or weed control at 100 µg/mL (wheat powdery mildew; Triticum aestivum, 168 h, read-out: control effect against wheat powdery mildew (%), 100 mg/L): 0% |
| Cc1ncnc(NC(C)c2ccc(Oc3ncc(C(F)(F)F)cc3Cl)cc2)c1Cl (stereo not drawn) [CK27, reference compound] |  |  |  |  |  |  |  | 0 | 29 | 0 | 30 | 90 | 100 | 100 | 0 | 0 | 0 | 100 | 80 | 100 | pest or weed control at 10 µg/mL (carmine spider mite; Tetranychus cinnabarinus, 72 h, 10 mg/L, read-out: Insecticidal activity against carmine spider mite (% )): 18%; pest or weed control at 100 µg/mL (carmine spider mite; Tetranychus cinnabarinus, 72 h, 100 mg/L, read-out: Insecticidal activity against carmine spider mite (% )): 100% |
| Cc1ncnc(NCc2ccc(Oc3c(Cl)cc([N+](=O)[O-])cc3Cl)cc2)c1Cl [CK65, reference compound] |  |  |  |  |  |  |  | 86 | 0 | 0 |  |  |  | 0 |  |  |  | 0 | 0 | 0 | pest or weed control at 10 µg/mL (Diamond back moth; 72 h, 10 mg/L): 5%; pest or weed control at 100 µg/mL (Diamond back moth; 72 h, 100 mg/L): 35% |
